# Where a name gives a salt, the structure may show the parent alone. Read-outs that look alike come from different tables or passages of the source.
# What was measured:
# [1] = molecular target: murine TRPM7 (Mus musculus, UniProt Q923J1); assay: TRPM7-mediated cell death screen, Tet-induced Flag-murine TRPM7 HEK293 Trex cells in Mg2+-deficient HBSS, PI fluorescence
# Protocol: In the present example, human embryonic kidney (HEK293 Trex) cells were stably transfected with a tetracycline inducible Flag-tagged TRPM7 construct.
# This cell death can be measured, and the impact of a candidate TRPM7 modulator on this cell death can be measured. […] Cell death can also be measured by fluorescent measurements of propidium iodide and dihydrorhodamine.
# Tet-inducible Flag-murine TRPM7/pcDNA4-TO HEK293 Trex cells are cultured in: MEM (Invitrogen) supplemented with 10% fetal bovine serum, 20 mM GlutaMAX-1, 100 units/ml penicillin G sodium, 100 units/ml streptomycin sulfate, 0.25 ug/ml amphotericin B, 5 ug/ml blasticidin, 0.4 mg/ml zeocin. (All reagent were obtained from Invitrogen)
# Stably transfected Flag-murine TRPM7/pcDNA4-TO HEK293 Trex cells are thawed from frozen stock kept in liquid nitrogen, and cultured in culture medium for 5 days in 100 mm dishes (Costa). […] Cells used in the present experiments are kept to three passages or less. The cells are maintained at 37° C. with 5% CO2 in a humidified incubator. All culture plates and multi-well plates (Costa) are coated with poly-D-lysine. The coating with poly-D-lysine is performed using 0.1 mg/ml poly-D-lysine (P1045 Sigma) for 12 h at 37C, followed by four washes with sterilized D-PBS (Invitrogen) without MgCl2 and CaCl2.).
# When 384 well plates are used, Cells are seeded at 1.3−1.5×10^4 cells/well. When 96 well plates are used, cells are seeded at 4−5×10^4 Cells/well. After 24 h TRPM7 expression is induced by adding tetracycline (Tet; 1 ug/ml) (Invitrogen) for 24 h, followed by wash with Mg deficient HBSS.
# The test compounds were plated in 96 or 384 well formats, and initially used at a concentration of: 4 μM for compounds of the LOPAC library and 5 μM for each of the Prestwick and Maybridge libraries.
# Cell death in the presence or absence of a test compound and/or under conditions of TRPM7 activation was determined by fluorescence measurements of PI (5-50 μg/ml).
# In brief, B scores are a relative potency score based on the raw sample PI fluorescence value. They are the ratio of an adjusted raw PI fluorescence value in the numerator to a measure of variability in the denominator.
# In another approach, used manually to validate the results of the HTS method, a multiwell plate fluorescence scanner (Fluorskan Ascent; Thermo Scientific) was used. The fraction of dead cells in each culture was calculated as: fraction DEAD=(Ft−Fo)/Fmax Where Ft=PI fluorescence of the sample at time t, Fo=initial PI fluorescence and Fmax=background subtracted PI fluorescence the same cultures after exposure to 100 μM triton-X. An alternative to this formula is a Control-based formula wherein the fraction dead=[Ft−F(−)t]/[F(+)t−F(−)t] where Ft=PI fluorescence of the sample at time t, F(−)t is the PI fluorescence of the negative control sample at time t, F(+)t is the PI fluorescence of the positive control sample at time t.
# Screening was carried out in Tet-induced Flag-murine TRPM7/pcDNA4-TO HEK293 Trex cells.
# [2] = molecular target: TRPM7 (Homo sapiens, UniProt Q96QT4); conditions: Nadler et al., Jiang et al.; read-out: IC50 for inhibition of TRPM7; cited from earlier work
# Chain of TRPM7 (Q96QT4 whole entry): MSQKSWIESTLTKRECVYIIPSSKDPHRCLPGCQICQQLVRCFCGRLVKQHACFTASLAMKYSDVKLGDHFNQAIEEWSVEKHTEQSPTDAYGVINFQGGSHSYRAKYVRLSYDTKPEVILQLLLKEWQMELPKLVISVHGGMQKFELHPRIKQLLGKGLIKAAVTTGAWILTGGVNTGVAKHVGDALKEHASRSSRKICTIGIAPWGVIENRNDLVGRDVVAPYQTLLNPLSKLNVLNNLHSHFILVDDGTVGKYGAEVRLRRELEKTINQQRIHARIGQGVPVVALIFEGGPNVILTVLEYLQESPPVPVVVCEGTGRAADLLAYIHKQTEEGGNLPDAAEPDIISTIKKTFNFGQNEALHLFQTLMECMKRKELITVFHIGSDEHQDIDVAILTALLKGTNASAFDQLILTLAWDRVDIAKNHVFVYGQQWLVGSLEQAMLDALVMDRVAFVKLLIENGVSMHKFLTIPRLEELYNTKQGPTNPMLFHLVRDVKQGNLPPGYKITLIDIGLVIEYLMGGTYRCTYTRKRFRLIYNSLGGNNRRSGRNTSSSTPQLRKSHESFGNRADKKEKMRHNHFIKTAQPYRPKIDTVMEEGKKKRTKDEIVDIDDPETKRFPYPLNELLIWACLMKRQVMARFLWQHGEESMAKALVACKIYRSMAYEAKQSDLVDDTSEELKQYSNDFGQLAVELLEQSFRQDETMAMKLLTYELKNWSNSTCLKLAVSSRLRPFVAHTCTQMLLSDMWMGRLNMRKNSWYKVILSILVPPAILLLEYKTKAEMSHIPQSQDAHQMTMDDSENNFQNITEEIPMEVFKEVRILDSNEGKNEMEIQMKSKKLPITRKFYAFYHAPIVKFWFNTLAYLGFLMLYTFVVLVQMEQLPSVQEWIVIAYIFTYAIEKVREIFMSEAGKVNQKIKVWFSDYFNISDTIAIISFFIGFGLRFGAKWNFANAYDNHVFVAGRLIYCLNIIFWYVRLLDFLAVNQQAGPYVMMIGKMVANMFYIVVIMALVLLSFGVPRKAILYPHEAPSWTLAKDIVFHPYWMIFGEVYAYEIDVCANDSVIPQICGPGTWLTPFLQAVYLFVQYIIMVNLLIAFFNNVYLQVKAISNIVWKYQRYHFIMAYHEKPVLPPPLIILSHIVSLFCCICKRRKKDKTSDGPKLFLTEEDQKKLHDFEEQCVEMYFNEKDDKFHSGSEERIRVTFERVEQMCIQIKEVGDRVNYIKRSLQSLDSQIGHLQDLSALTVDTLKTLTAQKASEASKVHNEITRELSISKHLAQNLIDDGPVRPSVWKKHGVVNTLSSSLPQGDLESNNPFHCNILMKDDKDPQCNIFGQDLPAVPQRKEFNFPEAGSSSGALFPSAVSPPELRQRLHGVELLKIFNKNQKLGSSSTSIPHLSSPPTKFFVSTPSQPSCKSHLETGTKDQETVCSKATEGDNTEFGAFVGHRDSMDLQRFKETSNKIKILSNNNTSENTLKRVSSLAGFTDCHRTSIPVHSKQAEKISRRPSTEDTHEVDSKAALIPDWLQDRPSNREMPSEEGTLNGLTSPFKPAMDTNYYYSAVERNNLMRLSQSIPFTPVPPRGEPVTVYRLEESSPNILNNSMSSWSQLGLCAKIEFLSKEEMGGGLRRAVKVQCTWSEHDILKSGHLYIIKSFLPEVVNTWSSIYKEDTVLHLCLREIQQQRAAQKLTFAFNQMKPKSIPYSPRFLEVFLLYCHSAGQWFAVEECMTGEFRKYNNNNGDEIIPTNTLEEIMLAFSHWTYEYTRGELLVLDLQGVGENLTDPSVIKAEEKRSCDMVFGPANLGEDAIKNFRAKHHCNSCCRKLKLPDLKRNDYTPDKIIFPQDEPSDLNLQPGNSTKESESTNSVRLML
# [3] = system: H9c2 cells; assay: OGD-induced cell death in H9c2 cardiomyocytes, PI uptake; assay type: cell-based, rat; conditions: 6 hr anoxia + 2 hr recovery, gadolinium in buffer
# Protocol: The rat cardiomyoblast cell line H9c2 was obtained from the American Type Culture Collection (CRL-1446) and cultured in Dulbecco's Modified Eagle Medium supplemented with 10% (v/v) heat-inactivated fetal bovine serum and 1% antibiotic-antimycotic. Cells were grown in an atmosphere of […]/5% CO2 in a humidified incubator.
# H9c2 cells were made anoxic by replacing the medium with de-oxygenated Ischemic buffer (in mM: 1.13 CaCl2, 5 KCl, 0.3 KH2PO4, 0.5 MgCl2, 0.4 MgSO4, 128 NaCl, 10 HEPES) and by transferring them to an anaerobic chamber (5% CO2, 10% H2, 85% N2) for 6 hrs or 16 hrs at 37° C. OGD was terminated by washing the cells with oxygenated glucose-containing Control buffer (in mM: 1.13 CaCl2, 5 KCl, 0.3 KH2PO4, 0.5 MgCl2, 0.4 MgSO4, 128 NaCl, 10 HEPES 10 Glucose). Cultures were maintained for another 2 hrs at 37° C. in a humidified 5% CO2 atmosphere. Normoxic cells were maintained in Control buffer for the duration of the experiment.
# Cell death was determined by fluorescence measurements of PI (5 μg/ml) using a multiwell plate fluorescence scanner. The fraction of dead cells in each culture was calculated as: fraction dead=(Ft−F0)/Fmax where Ft=PI fluorescence at 2 hrs post-OGD, F0=initial PI fluorescence immediately after the OGD treatment, and Fmax=PI fluorescence of the same cultures following 20 mins incubation in 1% TritonX-100.
# H9c2 cells were cultured and subjected to OGD as described supra. FIG. 71 panels A and B show the results of exposure to M21 or M5 for 24 hours following 6 hours of OGD. FIG. 71 panels C and D show the results of H9c2cells were treated with either 1 mM Mg^2+, 5 μM M6, M11 (acute treatment) during the anoxic and recovery periods, or 1 μM nifedipine. Results are presented as mean±SEM (n=4).
# [4] = LOPAC (4 μM) and Prestwick (5 μM) hits
# [5] = Prestwick library, 39 nM to 20 μM
# [6] = Prestwick library, initial concentration 5 μM, HTS PI fluorescence
# [7] = Prestwick library, manual replication
# [8] = LOPAC library, initial concentration 4 μM, HTS PI fluorescence
# [9] = LOPAC library, manual replication
# Chain of murine TRPM7 (Q923J1 whole entry): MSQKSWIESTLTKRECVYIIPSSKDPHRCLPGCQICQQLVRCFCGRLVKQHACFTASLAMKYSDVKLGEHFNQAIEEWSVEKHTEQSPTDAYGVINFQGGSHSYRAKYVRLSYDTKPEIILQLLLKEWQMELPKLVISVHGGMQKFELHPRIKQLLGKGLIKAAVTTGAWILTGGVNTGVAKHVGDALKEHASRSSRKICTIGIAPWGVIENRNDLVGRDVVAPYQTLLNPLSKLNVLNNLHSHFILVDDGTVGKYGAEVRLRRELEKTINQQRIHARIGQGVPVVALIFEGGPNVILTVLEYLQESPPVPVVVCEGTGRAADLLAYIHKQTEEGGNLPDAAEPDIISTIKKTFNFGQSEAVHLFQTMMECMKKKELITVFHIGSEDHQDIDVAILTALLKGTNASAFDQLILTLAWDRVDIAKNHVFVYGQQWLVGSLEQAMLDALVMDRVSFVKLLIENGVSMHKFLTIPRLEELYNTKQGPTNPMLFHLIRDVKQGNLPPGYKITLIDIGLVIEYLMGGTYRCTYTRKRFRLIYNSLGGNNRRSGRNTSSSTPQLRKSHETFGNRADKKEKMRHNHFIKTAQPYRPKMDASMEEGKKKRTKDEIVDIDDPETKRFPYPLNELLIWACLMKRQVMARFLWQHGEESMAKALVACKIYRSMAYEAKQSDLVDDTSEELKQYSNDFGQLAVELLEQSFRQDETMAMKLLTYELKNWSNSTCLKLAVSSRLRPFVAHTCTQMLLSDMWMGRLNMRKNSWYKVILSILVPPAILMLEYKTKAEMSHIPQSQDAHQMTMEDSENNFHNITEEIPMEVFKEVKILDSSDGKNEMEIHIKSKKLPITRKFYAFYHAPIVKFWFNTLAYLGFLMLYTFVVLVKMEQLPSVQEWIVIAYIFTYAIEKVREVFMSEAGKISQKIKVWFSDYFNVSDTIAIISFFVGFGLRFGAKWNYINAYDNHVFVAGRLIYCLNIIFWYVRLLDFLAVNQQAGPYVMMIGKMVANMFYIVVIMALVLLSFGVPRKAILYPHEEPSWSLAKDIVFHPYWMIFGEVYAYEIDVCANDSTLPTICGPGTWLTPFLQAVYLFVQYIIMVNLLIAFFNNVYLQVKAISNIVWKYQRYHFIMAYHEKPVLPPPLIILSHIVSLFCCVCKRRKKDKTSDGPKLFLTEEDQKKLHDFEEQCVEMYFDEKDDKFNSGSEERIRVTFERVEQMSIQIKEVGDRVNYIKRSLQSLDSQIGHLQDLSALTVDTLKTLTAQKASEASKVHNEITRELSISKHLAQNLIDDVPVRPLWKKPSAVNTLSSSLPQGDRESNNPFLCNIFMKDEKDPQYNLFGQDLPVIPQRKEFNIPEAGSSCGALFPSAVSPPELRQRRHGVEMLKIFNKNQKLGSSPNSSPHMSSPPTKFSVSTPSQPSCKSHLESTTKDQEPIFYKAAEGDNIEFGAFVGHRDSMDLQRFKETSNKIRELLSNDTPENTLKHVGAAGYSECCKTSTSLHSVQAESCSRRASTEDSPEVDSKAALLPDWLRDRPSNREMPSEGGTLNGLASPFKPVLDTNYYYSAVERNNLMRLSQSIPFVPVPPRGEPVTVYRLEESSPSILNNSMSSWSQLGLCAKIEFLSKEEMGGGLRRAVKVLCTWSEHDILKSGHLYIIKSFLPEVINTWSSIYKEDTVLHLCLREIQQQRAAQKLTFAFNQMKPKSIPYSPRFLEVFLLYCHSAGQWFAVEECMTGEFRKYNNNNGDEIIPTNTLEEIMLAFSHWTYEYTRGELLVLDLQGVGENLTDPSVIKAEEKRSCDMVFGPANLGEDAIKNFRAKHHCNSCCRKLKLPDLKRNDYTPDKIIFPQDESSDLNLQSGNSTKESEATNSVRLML
smiles,measurement,setting,value
COc1ccc(C[C@H]2NC[C@H](O)[C@H]2OC(C)=O)cc1 [Anisomycin],found to inhibit TRPM7-mediated cell injury,[1]; [4],inhibit TRPM7-mediated cell injury
same,Dose-Response,[1]; [5],Yes
same,B Score,[1]; [6],−6.683
same,Verification Ratio,[1]; [7],0.4265
COc1cccc(OC)c1OCCNCC1CSc2ccccc2O1 (centres unmarked) [Benoxathian hydrochloride],found to inhibit TRPM7-mediated cell injury,[1]; [4],inhibit TRPM7-mediated cell injury
same,Dose-Response,"[1]; LOPAC library, 39 nM to 20 μM",Yes
same,B Score,[1]; [8],−10.32
same,Verification Ratio,[1]; [9],0.359
CCn1cnc2c(Nc3cccc(Cl)c3)nc(N[C@@H]3CCCC[C@@H]3N)nc21.Cl [CGP-74514A hydrochloride],found to inhibit TRPM7-mediated cell injury,[1]; [4],inhibit TRPM7-mediated cell injury
same,Dose-Response,"[1]; LOPAC library, 39 nM to 20 μM",Yes
same,B Score,[1]; [8],−7.96
same,Verification Ratio,[1]; [9],0.6543
C[C@@]12C(=O)OC(=O)[C@]1(C)[C@H]1CC[C@@H]2O1 [Cantharidin],found to inhibit TRPM7-mediated cell injury,[1]; [4],inhibit TRPM7-mediated cell injury
same,B Score,[1]; [8],−10.178
same,Verification Ratio,[1]; [9],0.7724
same,B Score,[1]; [6],−9.671
same,Verification Ratio,[1]; [7],0.3746
CC[C@H]1CN2CCc3cc(OC)c(OC)cc3[C@@H]2C[C@@H]1C[C@H]1NCCc2cc(O)c(OC)cc21.Cl.Cl.O.O.O.O.O.O.O [Cephaeline dihydrochloride heptahydrate],found to inhibit TRPM7-mediated cell injury,[1]; [4],inhibit TRPM7-mediated cell injury
same,B Score,[1]; [6],−7.927
same,Verification Ratio,[1]; [7],0.2271
O=C(O)c1cc(O)cc(C(=O)O)n1 [Chelidamic acid],found to inhibit TRPM7-mediated cell injury,[1]; [4],inhibit TRPM7-mediated cell injury
same,Dose-Response,"[1]; LOPAC library, 39 nM to 20 μM",Yes
same,B Score,[1]; [8],−12.502
same,Verification Ratio,[1]; [9],1.287
Cc1cc(C2CCCCC2)n(O)c(=O)c1.NCCO [Ciclopirox ethanolamine],found to inhibit TRPM7-mediated cell injury,[1]; [4],inhibit TRPM7-mediated cell injury
same,Dose-Response,[1]; [5],Yes
same,B Score,[1]; [6],−5.075
same,Verification Ratio,[1]; [7],0.4227
COc1cc2c(c(OC)c1OC)-c1ccc(OC)c(=O)cc1[C@@H](NC(C)=O)CC2 [Colchicine],B Score,[1],−7.343
same,Verification Ratio,[1],0.6723
same,found to inhibit TRPM7-mediated cell injury,[1],inhibit TRPM7-mediated cell injury
COc1cccc2c1C(=O)c1c(O)c3c(c(O)c1C2=O)C[C@@](O)(C(C)=O)C[C@@H]3O[C@H]1C[C@H](N)[C@H](O)[C@H](C)O1 [Daunorubicin hydrochloride],found to inhibit TRPM7-mediated cell injury,[1]; [4],inhibit TRPM7-mediated cell injury
same,Dose-Response,[1]; [5],Yes
same,B Score,[1]; [6],−5.68
same,Verification Ratio,[1]; [7],0.4598
C[C@H]1O[C@@H](O[C@H]2[C@@H](O)C[C@H](O[C@H]3[C@@H](O)C[C@H](O[C@H]4CC[C@@]5(C)[C@H](CC[C@@H]6[C@@H]5C[C@@H](O)[C@]5(C)[C@@H](C7=CC(=O)OC7)CC[C@]65O)C4)O[C@@H]3C)O[C@@H]2C)C[C@H](O)[C@@H]1O [Digoxin],B Score,[1],−5.938
same,Dose-Response,[1],Yes
same,Verification Ratio,[1],0.7248
same,found to inhibit TRPM7-mediated cell injury,[1],inhibit TRPM7-mediated cell injury
COc1cccc2c1C(=O)c1c(O)c3c(c(O)c1C2=O)C[C@@](O)(C(=O)CO)C[C@@H]3O[C@H]1C[C@H](N)[C@H](O)[C@H](C)O1 [Doxorubicin hydrochloride],found to inhibit TRPM7-mediated cell injury,[1]; [4],inhibit TRPM7-mediated cell injury
same,Dose-Response,[1]; [5],Yes
same,B Score,[1]; [6],−9.315
same,Verification Ratio,[1]; [7],0.4588
CCOc1ccc(Cc2nccc3cc(OCC)c(OCC)cc23)cc1OCC [Ethaverine hydrochloride],found to inhibit TRPM7-mediated cell injury,[1]; [4],inhibit TRPM7-mediated cell injury
same,Dose-Response,[1]; [5],Yes
same,B Score,[1]; [6],−9.238
same,Verification Ratio,[1]; [7],0.08142
"Ic1ccccc1CNC1C2CCN(CC2)C1C(c1ccccc1)c1ccccc1.O=C(O)C(=O)O [L-703,606 oxalate]",found to inhibit TRPM7-mediated cell injury,[1]; [4],inhibit TRPM7-mediated cell injury
same,Dose-Response,"[1]; LOPAC library, 39 nM to 20 μM",Yes
same,B Score,[1]; [8],−8.636
same,Verification Ratio,[1]; [9],0.373
CC[C@@H](C(=O)[C@@H](C)[C@@H](O)[C@H](C)CCc1ccc(C)c(O)c1C(=O)O)[C@H]1O[C@](CC)([C@H]2CC[C@](O)(CC)[C@H](C)O2)C[C@@H]1C [Lasalocid sodium salt],found to inhibit TRPM7-mediated cell injury,[1]; [4],inhibit TRPM7-mediated cell injury
same,B Score,[1]; [6],−5.54
same,Verification Ratio,[1]; [7],0.6891
[Mg+2] [Mg^2+],IC50,[2],~600 µM
O=C1c2c(O)ccc(O)c2C(=O)c2c(NCCNCCO)ccc(NCCNCCO)c21 [Mitoxantrone],found to inhibit TRPM7-mediated cell injury,[1]; [4],inhibit TRPM7-mediated cell injury
same,Dose-Response,"[1]; LOPAC library, 39 nM to 20 μM",Yes
same,B Score,[1]; [8],−7.587
same,Verification Ratio,[1]; [9],0.25
COc1ccccc1N1CCN(CC(O)COc2cccc3ccccc23)CC1 (centres unmarked) [Naftopidil dihydrochloride],found to inhibit TRPM7-mediated cell injury,[1]; [4],inhibit TRPM7-mediated cell injury
same,Dose-Response,"[1]; LOPAC library, 39 nM to 20 μM",Yes
same,B Score,[1]; [8],−7.535
same,Verification Ratio,[1]; [9],0.2231
same,B Score,[1]; [6],−8.736
same,Verification Ratio,[1]; [7],0.1346
COC(=O)C1=C(C)NC(C)=C(C(=O)OCCN(C)Cc2ccccc2)C1c1cccc([N+](=O)[O-])c1 (centres unmarked) [Nicardipine hydrochloride],found to inhibit TRPM7-mediated cell injury,[1]; [4],inhibit TRPM7-mediated cell injury
same,Dose-Response,[1]; [5],Yes
same,B Score,[1]; [6],−7.543
same,Verification Ratio,[1]; [7],0.6651
COc1cc(/C=C/C(=O)N2CCC=CC2=O)cc(OC)c1OC [Piperlongumine],found to inhibit TRPM7-mediated cell injury,[1]; [4],inhibit TRPM7-mediated cell injury
same,Dose-Response,[1]; [5],Yes
same,B Score,[1]; [6],−9.599
same,Verification Ratio,[1]; [7],0.7354
COc1ccc(C[C@H](N)C(=O)N[C@H]2[C@@H](O)[C@H](n3cnc4c(N(C)C)ncnc43)O[C@@H]2CO)cc1 [Puromycin dihydrochloride],found to inhibit TRPM7-mediated cell injury,[1]; [4],inhibit TRPM7-mediated cell injury
same,Dose-Response,[1]; [5],Yes
same,B Score,[1]; [6],−5.573
same,Verification Ratio,[1]; [7],0.5905
CCN(CC)CCCC(C)Nc1c2ccc(Cl)cc2nc2ccc(OC)cc12 (centres unmarked) [Quinacrine dihydrochloride],found to inhibit TRPM7-mediated cell injury,[1]; [4],inhibit TRPM7-mediated cell injury
same,Dose-Response,"[1]; LOPAC library, 39 nM to 20 μM",Yes
same,B Score,[1]; [8],−5.516
same,Verification Ratio,[1]; [9],0.8254
C[n+]1cc2c3c(ccc2c2ccc4cc5c(cc4c21)OCO5)OCO3 [Sanguinarine chloride],found to inhibit TRPM7-mediated cell injury,[1]; [4],inhibit TRPM7-mediated cell injury
same,B Score,[1]; [8],−6.158
same,Verification Ratio,[1]; [9],0.8029
COc1cc2c(cc1OC)-c1c/c(=N\c3c(C)cc(C)cc3C)n(C)c(=O)n1CC2 [Trequinsin hydrochloride],found to inhibit TRPM7-mediated cell injury,[1]; [4],inhibit TRPM7-mediated cell injury
same,Dose-Response,"[1]; LOPAC library, 39 nM to 20 μM",Yes
same,B Score,[1]; [8],−8.81
same,Verification Ratio,[1]; [9],0.2534
"[Gd] [gadolinium, reference compound]",OGD-mediated cell death,[3],reduced

# Reference: US8680137B2, “Agents and methods for treating ischemic and other diseases” (Nono Inc., priority 2009, dated 2014)
